Values joined by “and” are separate entries in the source; they are usually repeats but may differ in a detail not shown here. Equal entries are not always repeated.
What was measured:
[1] = system: SV40 virus DNA; details: Borden E. et al. 1979, 1981; cited from earlier work
[2] = system: Enzephalomyocarditis virus RNA; details: Borden E. et al. 1979, 1981; cited from earlier work
[3] = system: influenza B virus; assay type: cell-based
[4] = system: A/Wisconsin/67/2005 (H3N2)-like virus; assay type: cell-based, influenza A virus
[5] = system: A/New Caledonia/20/99 (H1N1); assay type: cell-based, influenza A virus
[6] = system: A/Vienna/28/2006 (H3N2) (A/Wisconsin/67/2005-like); assay type: cell-based, influenza A virus
[7] = system: A/New Caledonia/20/99 (H1N1)-like ΔNS1 virus; assay type: cell-based, influenza A virus
[8] = system: B/Vienna/32/2006 (B/Malaysia/2506/2004-like); assay type: cell-based, influenza B

SMILES | infectivity of viral DNA [1] | infectivity of viral RNA [2] | clinical samples positive for virus isolation [3] | cytopathic effect of transfectant virus [4] | titre of transfectant virus [4] | less virus obtained when no amphotericin B is added [5] | higher virus titre if grown in the presence of amphotericin B [6] | increase of sensitivity (titre) of TCID50 titration [7] | titre of B virus in the presence of amphotericin B [8]
COC(=O)[C@H]1[C@@H]2C[C@@H](O[C@@H]3O[C@H](C)[C@@H](O)[C@H](N)[C@@H]3O)/C=C/C=C/C=C/C=C/C=C/C=C/C=C/[C@H](C)[C@@H](O)[C@@H](C)[C@H](C)OC(=O)C[C@H](O)C[C@H](O)CC[C@@H](O)[C@H](O)C[C@H](O)C[C@](O)(C[C@@H]1O)O2 [Amphotericin B methyl ester] | increase the infectivity | increase the infectivity |  |  |  |  |  |  | 
C[C@@H]1[C@H](O)[C@@H](C)/C=C/C=C/C=C/C=C/C=C/C=C/C=C/[C@H](O[C@@H]2O[C@H](C)[C@@H](O)[C@H](N)[C@@H]2O)C[C@@H]2O[C@](O)(C[C@@H](O)C[C@@H](O)[C@H](O)CC[C@@H](O)C[C@@H](O)CC(=O)O[C@H]1C)C[C@H](O)[C@H]2C(=O)O [amphotericin B] |  |  | 9 | clear cytopathic effect | 2E+04 TCID50/ml and 2.0E+04 TCID50/ml | 1 log | ≥ 1 log | ~1 log | more than 1E+08 pfu/ml
